Key:
[1] = tested on: Wnt/β-catenin signaling; assay: β-catenin activated reporter (BAR) luciferase assay in A375 melanoma cells
Text: By way of non-limiting example, Wnt/β-catenin signaling can be measured using the BAR reporter described in detail elsewhere herein. Briefly, the BAR (β-catenin activated reporter) is a lentiviral plasmid which provides for expression of luciferase in response to Wnt/β-catenin signaling. Output can be measured with an automated luminescence plate reader.
Detailed information on the β-catenin activated reporter (BAR) has been previously described (23). Briefly, the β-catenin activated reporter (pBAR) is a lentiviral plasmid that contains 12 TCF/LEF binding sites (5′-[sequence]-3′) each separated by distinct 5 base-pair linkers upstream of a minimal promoter and the firefly luciferase open reading frame. The reporter also contains a separate PGK promoter that constitutively drives the expression of a puromycin resistance gene for mammalian cell selection. […] PLX4720 was purchased from Symansis (Australia cat# SY-PLX4720). CHIR99021 was purchased from Axon MedChem (Gronigen, Netherlands catalog #Axon1386). Z-VAD-FMK was purchased from R&D systems (Minneapolis, Minn. cat# FMKSP01).
Low throughput BAR reporter assays. Cells were plated in 96-well plates.

[2] = tested on: Wnt/β-catenin signaling; assay: WNT3A-mediated reporter activity in primary melanocytes; format: cell-based, human; details: HEMs
[3] = tested on: AXIN1; assay: Immunoblot of steady-state AXIN1 levels in melanoma cells; format: cell-based, human
[4] = tested on: A375; assay: Flow cytometry for active (cleaved) caspase-3, A375; format: cell-based, human
Procedure: (§1) Flow cytometry for Active Caspase-3. Cells were seeded in a 6-well dish at a density to achieve 90-100% confluence at harvest. 24 hours after seeding, cells were treated with the indicated conditions for the indicated amount of time. At the time of collection, supernatants were collected and pooled with trypsinized cells. Cells were fixed with 4% paraformaldehyde and permeabilized according to vendor's protocol for Cleaved Caspase-3 (Asp175) Antibody (AlexaFluor 488 Conjugate) (catalog #9669) (Cell Signaling, Beverly Mass.). The antibody was used at a final dilution of 1:100. Flow was performed on a BD FACSCanto H, and data analysed with FlowJo 8.8.6 (Tree Star) software. Experiments were performed with biological triplicates and data are representative of at least three independent experiments. For experiments involving siRNAs, cells were reverse transfected with 20 nM siRNA in 6-well dishes in triplicate with RNAiMax according to manufacturer's protocol. 48 hours following transfection, cells were treated with the indicated conditions for 24 hours and then harvested for analysis. Cells were harvested, stained, and analyzed as described above.

[5] = tested on: A375; assay: qPCR of endogenous Wnt target gene AXIN2, A375; format: cell-based, human; details: A375; WNT3A CM, 2 μM PLX4720, 24 hours
Text: RNA purification and qRT-PCR analysis. RNA was purified using the RNeasy kit following the manufacturer's protocol (Qiagen; Maryland, Md.). cDNA was synthesized using RevertAid™ M-MuLV Reverse Transcriptase (Fermentas; Ontario, CAN). Light Cycler FastStart DNA Master SYBR Green1 (Roche; Mannheim, Germany) was used for real-time PCR as previously described (53). Quantitative PCR results presented in the manuscript are averages of a minimum of three biologic replicates.

[6] = tested on: human A375 melanoma cells grown as xenografts; assay: Xenograft assay, A375:GFP or A375:WNT3A tumors in NSG mice; format: in vivo, mouse; details: 50 mg/kg PLX4720 oral gavage once daily
Procedure: Xenograft assays. NSG (NOD/SCID/IL2r-gamma (null)) mice were injected with 5×10^5 A375 cells stably expressing GFP or 5×10^5 A375 cells stably expressing WNT3A-IRES-GFP. Tumors were allowed to establish to approximately 100 mm^3, after which mice where tumor size-matched and allocated to five per treatment group (vehicle or PLX4720). WNT3A-IRES-GFP tumors grew slower and therefore the first day of treatment was day 14 while GFP expressing tumors were first treated on day 9. Treatment was by oral gavage once daily with 5% DMSO in 1% carboxymethyl cellulose or 50 mg/kg PLX4720 in 1% carboxymethyl cellulose (604 mM PLX4720 in DMSO was diluted 1:20 in 1% carboxymethylcellulose). Tumor size was determined by caliper measurements of tumor length and width every 3 to 4 days. Tumor volume was then calculated using the following formula: volume=(width)^2×length/2. Tumors were harvested 2 hours after the last dose and fixed in neutral-buffered formalin overnight at room temperature.

[7] = tested on: SKMEL28; assay: Flow cytometry for active (cleaved) caspase-3, SKMEL28; format: cell-based, human; details: 2 uM PLX4720, 24 hours, in % (unit assumed)
Procedure: as §1, with “experiments.” for “experiments. For experiments involving siRNAs, cells were reverse transfected with 20 nM siRNA in 6-well dishes in triplicate with RNAiMax according to manufacturer's protocol. 48 hours following transfection, cells were treated with the indicated conditions for 24 hours and then harvested for analysis. Cells were harvested, stained, and analyzed as described above.”
(§2) For experiments involving siRNAs, cells were reverse transfected with 20 nM siRNA in 6-well dishes in triplicate with RNAiMax according to manufacturer's protocol. 48 hours following transfection, cells were treated with the indicated conditions for 24 hours and then harvested for analysis. Cells were harvested, stained, and analyzed as described above.

[8] = tested on: human A375 melanoma cells; assay: Resazurin-based assay for cell viability
[9] = tested on: A2058; assay: Flow cytometry for active (cleaved) caspase-3, A2058; format: cell-based, human; details: 2 uM PLX4720, 24 hours, in % (unit assumed)
Procedure: as §1, with “experiments.” for “experiments. For experiments involving siRNAs, cells were reverse transfected with 20 nM siRNA in 6-well dishes in triplicate with RNAiMax according to manufacturer's protocol. 48 hours following transfection, cells were treated with the indicated conditions for 24 hours and then harvested for analysis. Cells were harvested, stained, and analyzed as described above.”
as §2

[10] = tested on: SKMEL5; assay: Flow cytometry for active (cleaved) caspase-3, SKMEL5; format: cell-based, human; details: 2 uM PLX4720, 24 hours, in % (unit assumed)
Procedure: as §1, with “experiments.” for “experiments. For experiments involving siRNAs, cells were reverse transfected with 20 nM siRNA in 6-well dishes in triplicate with RNAiMax according to manufacturer's protocol. 48 hours following transfection, cells were treated with the indicated conditions for 24 hours and then harvested for analysis. Cells were harvested, stained, and analyzed as described above.”
as §2

[11] = tested on: BAD and Bim (BCL2L11); assay: Immunoblot of BH3-only proteins BAD and Bim in A375 cells; format: cell-based, human
[12] = tested on: GSK3β; assay: Immunoblot for activating auto-phosphorylation of GSK3β in A375 cells; format: cell-based, human
[13] = tested on: ppERK1/2; assay: Immunoblot for dual-phosphorylated ERK1/2 in melanoma cells; format: cell-based, human
Text: By way of non-limiting example, inhibition of ERK signaling can be measured by determining the level of dual-phosphorylated ERK1/2 (ppERK1/2) as described in detail elsewhere herein. In brief, the level of ppERK1/2 can be detected by immunoblot assay.

[14] = tested on: COLO829; assay: Flow cytometry for active (cleaved) caspase-3, COLO829; format: cell-based, human; details: WNT3A, 2 μM PLX4720, 24 hours
Procedure: as §1

[15] = A375, WNT3A and PLX4720 time course

Question: How did the “activation of BAR” value ([1]; A375, PLX4720 on its own) turn out when `CCCS(=O)(=O)Nc1ccc(F)c(C(=O)c2c[nH]c3ncc(Cl)cc23)c1F` [PLX4720, N-[3-[(5-Chloro-1H-pyrrolo[2,3-b]pyridin-3-yl)carbonyl]-2,4-difluorophenyl]-1-propanesulfonamide] was run?
Answer: Its value is “does not lead to any measurable activation of BAR on its own”.

Question: And the “Wnt/β-catenin signaling (BAR activity)” value ([1]; A375, in the presence of WNT3A)?
Answer: The value was “enhanced Wnt/β-catenin signaling in a dose-dependent manner”.

Question: What about the “Combination indices (BAR activity)” value ([1]; WNT3A and PLX4720, fixed ratio doses, particularly at higher levels of BAR activity) of the same molecule?
Answer: Its value is “less than 1”.

Question: And the Wnt/β-catenin signaling [2]?
Answer: The Wnt/β-catenin signaling was “no detectable effect”.

Question: What about the “steady-state levels of AXIN1” value ([3]; A375, Mel624, and COLO829, WNT3A plus 2 μM PLX4720 vs WNT3A alone, 24 hours) of the same molecule?
Answer: The value was “markedly reduced”.

Question: And the “time after which almost no detectable AXIN1 remained” value [3, 15]?
Answer: Its value is 16 to 20 h.

Question: What about the “time to rapid decrease in steady-state levels of AXIN1” value [3, 15] of the same molecule?
Answer: The value was 1 to 2 h.

Question: And the “steady-state AXIN1 levels” value ([3]; SKMEL5, SKMEL28 and A2058, WNT3A plus 2 μM PLX4720 vs WNT3A alone, 24 hours)?
Answer: Its value is “did not significantly decrease”.

Question: And the “steady-state levels of AXIN1” value ([3]; absence of rWnt3A)?
Answer: Its value is “slightly decreased”.

Question: What about the “steady-state levels of AXIN1” value ([3]; presence of rWnt3A) of the same molecule?
Answer: The value was “markedly diminished”.

Question: What about the “increase in cleaved caspase-3” value ([4]; A375, WNT3A CM plus 2 μM PLX4720, 24 hours) of the same molecule?
Answer: Its value is 5-20 fold.

Question: What about the “cleaved caspase-3” value ([4]; A375, single agent alone, 24 hours) of the same molecule?
Answer: Its value is “minimal increases in cleaved caspase-3”.

Question: And the “SYNERGISTIC APOPTOSIS WITH WNT AND PLX4720?” value ([4]; A375, WNT3A, 2 μM PLX4720, 24 hours)?
Answer: Its value is “YES”.

Question: What about the “SYNERGISTIC WNT ACTIVATION WITH PLX4720?” value [5] of the same molecule?
Answer: Its value is “YES”.

Question: And the tumor growth ([6]; A375:GFP tumors)?
Answer: The tumor growth was “decreased tumor growth compared to drug vehicle”.

Question: What about the tumor growth ([6]; A375:WNT3A tumors, over four weeks) of the same molecule?
Answer: The tumor growth was “near complete suppression”.

Question: What about the “cleaved caspase-3-positive cells” value ([7]; AXIN1/2 siRNA, L CM) of the same molecule?
Answer: The value was 31.47 ± 0.13.

Question: And the “cleaved caspase-3-positive cells” value ([7]; AXIN1/2 siRNA, W3A CM)?
Answer: The value was 33.93 ± 4.1.

Question: And the “cleaved caspase-3-positive cells” value ([7]; Control siRNA, L CM)?
Answer: Its value is 6.02 ± 0.63.

Question: What about the “cleaved caspase-3-positive cells” value ([7]; Control siRNA, W3A CM) of the same molecule?
Answer: The value was 8.64 ± 1.9.

Question: What about the “cell viability / proliferation (resazurin)” value [8] of the same molecule?
Answer: The value was “further decreases cell viability”.

Question: And the “cleaved caspase-3-positive cells” value ([9]; AXIN1/2 siRNA, L CM)?
Answer: The value was 12.67 ± 0.89.

Question: And the “cleaved caspase-3-positive cells” value ([9]; AXIN1/2 siRNA, W3A CM)?
Answer: Its value is 15.07 ± 1.6.

Question: And the “cleaved caspase-3-positive cells” value ([9]; Control siRNA, L CM)?
Answer: Its value is 3.39 ± 0.17.

Question: What about the “cleaved caspase-3-positive cells” value ([9]; Control siRNA, W3A CM) of the same molecule?
Answer: Its value is 4.45 ± 0.41.

Question: And the “cleaved caspase-3-positive cells” value ([10]; AXIN1/2 siRNA, L CM)?
Answer: The value was 11.88 ± 0.18.

Question: What about the “cleaved caspase-3-positive cells” value ([10]; AXIN1/2 siRNA, W3A CM) of the same molecule?
Answer: Its value is 13.13 ± 2.7.

Question: And the “cleaved caspase-3-positive cells” value ([10]; Control siRNA, L CM)?
Answer: Its value is 3.39 ± 0.22.

Question: What about the “cleaved caspase-3-positive cells” value ([10]; Control siRNA, W3A CM) of the same molecule?
Answer: The value was 4.28 ± 1.2.

Question: What about the “phosphorylation of BimEL” value ([11]; A375, 2 μM PLX4720, 24 hours) of the same molecule?
Answer: Its value is “decreased phosphorylation of the largest Bim isoform, BimEL”.

Question: What about the “phosphorylation of Ser75 on BAD” value ([11]; A375, 24 hours) of the same molecule?
Answer: Its value is “decreased Ser75 phosphorylation”.

Question: What about the “BimL and BimS levels” value ([11]; A375, combination of WNT3A and PLX4720, 24 hours) of the same molecule?
Answer: The value was “marked increase in BimL and BimS”.

Question: What about the “activating auto-phosphorylation of GSK3B” value [12] of the same molecule?
Answer: The value was “lost”.

Question: What about the “dual-phosphorylated ERK1/2 (ppERK1/2)” value ([13]; A375) of the same molecule?
Answer: The value was “dose-dependent inhibition”.

Question: And the “time to inhibition of ppERK” value [13, 15]?
Answer: Its value is at most 30 min.

Question: What about the ERK1/2 phosphorylation ([13]; six established melanoma lines harboring the BRAF^V600E mutation) of the same molecule?
Answer: The ERK1/2 phosphorylation was “inhibition of ERK1/2 phosphorylation”.

Question: And the “SYNERGISTIC APOPTOSIS WITH WNT AND PLX4720?” value [14]?
Answer: Its value is “YES”.

Source: patent publication US20120059021A1, “COMPOSITIONS AND METHODS FOR TREATING CANCER AND METHODS FOR PREDICTING A RESPONSE TO SUCH TREATMENTS” (UNIVERSITY OF WASHINGTON, priority 2008, published 2012)
